Patent US9101620B2, “Polymorph of 3-(substituteddihydroisoindolinone-2-yl)-2,6-dioxopiperidine, and pharmaceutical compositions thereof” (Nanjing Cavendish Bio-Engineering Technology Co., Ltd., priority 2009, dated 2015)

Assays:
[1] = Accelerated test (40° C., 75% relative humidity); assay type: physicochemical; details: 40° C. and 75% relative humidity
Description: The conditions and methods of related substance test involved in this invention were in accordance with HPLC (Appendix VD of Chinese Pharmacopoeia Edition 2005).
Chromatographic conditions and system applicability: octadecylsilane bonded silica as the filler; 0.01 mol/L of potassium dihydrogen phosphate (adjusted to pH 3.5 by phosphoric acid)-methanol-acetonitrile (80:15:5) as the mobile phase; detection wavelength was 240 nm; the number of theoretical plates should be not less than 2000, calculated according to the peak of 3-(4-amino-1-oxo-1,3-dihydro-2H-isoindole-2-yl)-piperidine-2,6-dione. The resolution of the peak of 3-(4-amino-1-oxo-1,3-dihydro-2H-isoindole-2-yl)-piperidine-2,6-dione from the peaks of adjacent impurities should meet requirements.
(§1) The raw material of Polymorph I of 3-(4-amino-1-oxo-1,3-dihydro-2H-isoindole-2-yl)-piperidine-2,6-dione (hemihydrate) was hermetically packed in plastic bags of polyethylene film and put in thermostatic and humidostatic incubator at 40±2° C. and 75±5% relative humidity for six months. Sample was tested at the end of the 1st, 2nd, 3rd and 6th month respectively and the results were contrasted with that of the zeroth month. Results were listed in Tab. 5. After accelerated test at 40° C. for six months, the X-ray powder diffraction pattern was shown in FIG. 11; DSC diagram was in FIG. 12-1; TGA diagram was in FIG. 12-2
as §1, with “Polymorph II” for “Polymorph I”, “3-(4-amino-1-oxo-1,3-dihydro-2H-isoindole-2-yl)-piperidine-2,6-dione” for “3-(4-amino-1-oxo-1,3-dihydro-2H-isoindole-2-yl)-piperidine-2,6-dione (hemihydrate)”, “Tab. 10.” for “Tab. 5.”, “FIG. 22;” for “FIG. 11;”, “FIG. 23-1;” for “FIG. 12-1;”, “FIG. 23-2” for “FIG. 12-2”
as §1, with “Polymorph III” for “Polymorph I”, “3-(4-amino-1-oxo-1,3-dihydro-2H-isoindole-2-yl)-piperidine-2,6-dione” for “3-(4-amino-1-oxo-1,3-dihydro-2H-isoindole-2-yl)-piperidine-2,6-dione (hemihydrate)”, “Tab. 15.” for “Tab. 5.”, “FIG. 33;” for “FIG. 11;”, “FIG. 34-1;” for “FIG. 12-1;”, “FIG. 34-2” for “FIG. 12-2”

[2] = High humidity test (room temperature, 75±5% relative humidity); assay type: physicochemical; details: for Change of appearance and content (in words) / Moisture absorption (in words): high humidity test, summary; for Appearance / Content / Weight gain of moisture absorption: room temperature, 75±5% relative humidity
Description: (§2) The raw material of Polymorph 1 of 3-(4-amino-1-oxo-1,3-dihydro-2H-isoindole-2-yl)-piperidine-2,6-dione (hemihydrate) was distributed homogeneously in open petri dish with thickness of the raw material not more than 5 mm and put into thermostatic and humidostatic incubator at room temperature (about 25° C.) and 75±5% relative humidity. Sample was tested at the 5th and 10th day respectively and the results were contrasted with that of the Day 0. Results were listed in Tab. 4. After high humidity test of 75±5% relative humidity for 10 days, the X-ray powder diffraction pattern was shown in FIG. 9; DSC diagram was in FIG. 10-1; TGA diagram was in FIG. 10-2.
as §2, with “Polymorph II” for “Polymorph 1”, “3-(4-amino-1-oxo-1,3-dihydro-2H-isoindole-2-yl)-piperidine-2,6-dione” for “3-(4-amino-1-oxo-1,3-dihydro-2H-isoindole-2-yl)-piperidine-2,6-dione (hemihydrate)”, “Tab. 9.” for “Tab. 4.”, “FIG. 20;” for “FIG. 9;”, “FIG. 21-1;” for “FIG. 10-1;”, “FIG. 21-2.” for “FIG. 10-2.”
as §2, with “Polymorph III” for “Polymorph 1”, “3-(4-amino-1-oxo-1,3-dihydro-2H-isoindole-2-yl)-piperidine-2,6-dione” for “3-(4-amino-1-oxo-1,3-dihydro-2H-isoindole-2-yl)-piperidine-2,6-dione (hemihydrate)”, “Tab. 14.” for “Tab. 4.”, “FIG. 31;” for “FIG. 9;”, “FIG. 32-1;” for “FIG. 10-1;”, “FIG. 32-2.” for “FIG. 10-2.”

Appearance ([1]; 0 months) | Content ([1]; 0 months) [%] | Related substance ([1]; 0 months) [%] | Appearance ([1]; 1 month) | Content ([1]; 1 month) [%] | Related substance ([1]; 1 month) [%] | Appearance ([1]; 2 months) | Content ([1]; 2 months) [%] | Related substance ([1]; 2 months) [%] | Appearance ([1]; 3 months) | Content ([1]; 3 months) [%] | Related substance ([1]; 3 months) [%] | Appearance ([1]; 6 months) | Content ([1]; 6 months) [%] | Related substance ([1]; 6 months) [%] | Change of appearance and content (in words) [2] | Moisture absorption (in words) [2] | Appearance ([2]; 0 days) | Content ([2]; 0 days) [%] | Appearance ([2]; 5 days) | SMILES | other results
off-white powder | 99.89 | 0.09 | off-white powder | 99.85 | 0.09 | off-white powder | 99.77 | 0.10 | off-white powder | 99.72 | 0.10 | off-white powder | 99.68 | 0.12 | few obvious change | lower moisture absorption | off-white powder | 99.89 | off-white powder | Nc1cccc2c1CN(C1CCC(=O)NC1=O)C2=O (single isomer, unassigned) [Polymorph II, 3-(4-amino-1-oxo-1,3-dihydro-2H-isoindole-2-yl)-piperidine-2,6-dione] | Content ([2]; 5 days): 99.87%; Weight gain of moisture absorption ([2]; 5 days): 1.33%; Appearance ([2]; 10 days): off-white powder; Content ([2]; 10 days): 99.87%; Weight gain of moisture absorption ([2]; 10 days): 2.15%
Off-white powder | 99.87 | 0.05 | Off-white powder | 99.85 | 0.05 | Off-white powder | 99.81 | 0.05 | Off-white powder | 99.78 | 0.06 | Off-white powder | 99.75 | 0.07 | few obvious change | very slight moisture absorption | off-white powder | 99.87 | off-white powder | Nc1cccc2c1CN(C1CCC(=O)NC1=O)C2=O (single isomer, unassigned) [Polymorph I, 3-(4-amino-1-oxo-1,3-dihydro-2H-isoindole-2-yl)-piperidine-2,6-dione] | Content ([2]; 5 days): 99.85%; Weight gain of moisture absorption ([2]; 5 days): 0.65%; Appearance ([2]; 10 days): off-white powder; Content ([2]; 10 days): 99.85%; Weight gain of moisture absorption ([2]; 10 days): 0.66%
off-white powder | 99.86 | 0.07 | off-white powder | 99.81 | 0.07 | off-white powder | 99.76 | 0.07 | off-white powder | 99.71 | 0.08 | off-white powder | 99.62 | 0.08 | few obvious change | lower moisture absorption | off-white powder | 99.86 | off-white powder | Nc1cccc2c1CN(C1CCC(=O)NC1=O)C2=O (single isomer, unassigned) [Polymorph III, 3-(4-amino-1-oxo-1,3-dihydro-2H-isoindole-2-yl)-piperidine-2,6-dione] | Content ([2]; 5 days): 99.83%; Weight gain of moisture absorption ([2]; 5 days): 1.25%; Appearance ([2]; 10 days): off-white powder; Content ([2]; 10 days): 99.82%; Weight gain of moisture absorption ([2]; 10 days): 1.37%
